Reference: PMC11490426, “Structure-activity relationship of amino acid analogs to probe the binding pocket of sodium-coupled neutral amino acid transporter SNAT2” (Amino Acids, 2024)
“Also recorded” adds a separate entry of the source. Where a name gives a salt, the structure may show the parent alone. Read-outs that look alike come from different tables or passages of the source.

Legend:
[1] = target: T1, SNAT2 (Homo sapiens, UniProt Q96QD8); experiment: Inhibition of SNAT2-mediated 3H-glycine uptake in hyperosmotically treated PC-3 cells; assay type: cell-based; conditions: for inhibition of SNAT2-mediated 3H-glycine uptake / affinity for SNAT2: pH 7.4, result in words
T1 construct: hyperosmotically treated PC-3 cells, known to upregulate SNAT2; endogenous in cells; host or cells: PC-3 prostate cells exposed to hyperosmotic medium for 24 h
T1 sequence (Q96QD8 1-506): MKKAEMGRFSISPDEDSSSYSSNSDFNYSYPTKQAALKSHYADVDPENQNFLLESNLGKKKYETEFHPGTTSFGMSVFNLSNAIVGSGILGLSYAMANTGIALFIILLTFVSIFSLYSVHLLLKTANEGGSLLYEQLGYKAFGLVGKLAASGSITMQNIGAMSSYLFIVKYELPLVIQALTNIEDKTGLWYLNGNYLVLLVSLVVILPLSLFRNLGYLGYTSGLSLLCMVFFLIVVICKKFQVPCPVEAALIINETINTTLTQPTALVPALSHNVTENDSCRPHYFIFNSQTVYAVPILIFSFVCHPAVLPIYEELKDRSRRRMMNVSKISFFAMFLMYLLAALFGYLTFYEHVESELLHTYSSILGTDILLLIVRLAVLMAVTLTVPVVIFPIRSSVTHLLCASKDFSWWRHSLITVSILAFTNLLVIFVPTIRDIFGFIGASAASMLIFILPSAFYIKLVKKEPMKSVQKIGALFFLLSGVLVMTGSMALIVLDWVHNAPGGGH
Description: Where Y is the % uptake, X is the concentration of the inhibitor, Top and Bottom are the top and bottom plateau respectively, and IC50 is the half maximal inhibitory concentration. These studies were performed in at least 3 independent cell passages (n = 3) and a curve was defined for each independent passage. However, for each compound, the top and bottom were constrained to be the same amongst the different cell passages.

[2] = target: T1, SNAT2; experiment: FLIPR membrane potential (FMP) assay in PC-3 cells; assay type: cell-based; conditions: for response in the FMP assay (stimulation of SNAT2 activity) / influence on fluorescence intensity in the FMP assay: result in words; for influence on fluorescence intensity in the FMP assay: 20 mM
Description: PC-3 cells exposed to hyperosmotic media for 24 h were used to identify SNAT2 substrates in the FMP assay. The media was aspirated, and the cells were preincubated in HBSS + for 10 min at 37 °C and 220 rpm. Then the buffer was aspirated, and cells were then incubated in 50 µL HBSS + containing 0.55 mg ⋅ mL^− 1 (1x) FMP probe (Blue component A from Molecular Devices, San Jose, CA, USA) for 30 min at 37 °C and 220 rpm. […] First, the baseline was measured for 30 s by measuring each well every 3 s. The plate was then removed from the reader and 50 µL of substrate solutions containing 0.55 mg ⋅ mL^− 1 FMP probe was added. These solutions were prepared by mixing equal parts solution containing 2x FMP probe and solutions containing 4x the final concentration of substrate. […] Following this, the baseline of the next column was measured and followed the same procedure as just described.
For the FMP data, the baseline was defined as the mean fluorescence of the first data point before substrate addition. The baseline of each well was then subtracted from the data point to get the ΔF. Plotting ΔF as a function of time and calculating the area under the curve (AUC) after substrate addition was used as a measure of SNAT2 activity.

[3] = target: T1, SNAT2; set-up: method as in Jakobsen et al. [2023]; Nielsen et al. [2022]; conditions: hyperosmotically treated PC-3 cells; ref Jakobsen et al. [2023]; Nielsen et al. [2022]; cited from earlier work
[4] = target: T1, SNAT2; experiment: FLIPR membrane potential (FMP) assay in PC-3 cells; assay type: cell-based; conditions: isoosmotically treated PC-3 cells
[5] = target: T1, SNAT2; experiment: Intracellular amino acids and analogs quantified by OPA derivatization and HPLC-Fl after uptake in PC-3 cells; assay type: cell-based; conditions: 30 min uptake; for fold change of intracellular accumulation in absence vs presence of 10 mM L-glutamine: pH 7.4
Description: Derivatization of AAs and analogs using o-phthalaldehyde (OPA) and 2-mercaptoethanol (2-ME) to make fluorescent derivatives was used to measure the intracellular amounts of AAs and analogs following uptake in hyperosmotically treated PC-3 cells. Before starting the experiment, the medium was aspirated, and the cells were preincubated in HBSS + for 15 min at 37 °C and 220 rpm. The cells were then incubated with 500 µL HBSS+ (background) or HBSS + containing AAs or analogs at given concentrations for 30 min at 37 °C and 220 rpm. After aspirating the donor solutions, the cells were washed thrice with 500 µL of ice-cold PBS while keeping the cells on ice. 200 µL of ice-cold 1x-trypsin was added to each well and allowed to distribute for 20–30 min while keeping the cells on ice. The plate was then transferred to an incubating microplate shaker at 37 °C and 220 rpm for about 8 min or until the cells had detached. 300 µL of ice-cold PBS was added to each well to resuspend the cells and transfer them to centrifuge tubes. The cells were centrifuged at 1000 G for 5 min (4 °C), the supernatant was removed, the cells were resuspended in 300 µL ice-cold PBS, and then centrifuged again at 1000 G for 5 min (4 °C). After removing the supernatant, the cell pellet was lysed by adding 100 µL of 80% methanol (20% ultrapure water) and placing the tubes in an ultrasonic bath for 10 min. The tubes were then centrifuged at 15,000 G for 15 min (4 °C) and the resulting supernatant was used for analysis.
The OPA reagent was prepared by spiking with 2 µL 2-ME per mL of OPA regent and was considered stable for use within one day. 10 µL of the cell samples or standards containing a mixture of the AAs and analogs of interest were placed in HPLC vials with 100 µL inserts. […] The autosampler kept the samples at 10 °C and the pretreatment function was used to automatically mix the samples with 10 µL of the OPA reagent and wait 4 min before loading 2 µL onto a YMC-Triart C18 column (75 × 3.0 mm, 1.9 μm, Mikrolab Aarhus, Viby J, Denmark). […] The fluorescence detector was set to excite at 350 nm and detect at 450 nm.
The resulting chromatograms were integrated and the area under the curve (AUC) of the standard samples was used to generate standard curves to determine the concentration of AAs and analogs in the cell samples. […] Amino acid levels detected in the background cell samples were subtracted from the other cell samples.

[6] = hyperosmotically treated PC-3 cells, 5 min uptake of 11.1 nM 3H-glycine, pH 7.4, read-out: IC50
[7] = 3 mM compound, hyperosmotically treated PC-3 cells
[8] = hyperosmotically treated PC-3 cells
[9] = 10 mM compound, hyperosmotically treated PC-3 cells
[10] = 20 mM compound, hyperosmotically treated PC-3 cells

Structure (SMILES): N[C@@H](CC1CCCCC1)C(=O)O [3-Cyclohexyl-L-alanine, 3-cyclohexyl-L-alanine]
- IC50 [1, 6]: 630 µM
- AUC of fluorescence response-time curve [2, 7]: 21.9 ± 0.5 10^5 RFU ∙ s
- AUC, % of 10 mM L-alanine [2, 7]: 99.2 ± 2.4%
- response in the FMP assay (stimulation of SNAT2 activity) [2, 8]: substrates of SNAT2

Structure (SMILES): CC(=O)C(C)N.Cl (centres unmarked) [3-aminobutan-2-one, 3-Aminobutan-2-one hydrochloride]
- inhibition of SNAT2-mediated 3H-glycine uptake / affinity for SNAT2 [1, 8]: retains some affinity for SNAT2

Structure (SMILES): C[N+](C)(C)CC(=O)O [Betaine, betaine]
- IC50 [1, 6]: 6600 µM
- reduction of 3H-glycine uptake [3]: ~86%

Structure (SMILES): NCC(=O)O [Glycine, glycine]
- IC50 [1, 6]: 520 µM
- pIC50 ± SEM ([1]; hyperosmotically treated PC-3 cells, -log transformed IC50): [3.3 ± 0.11]

Structure (SMILES): CCOC(=O)[C@H](C)N [L-Alanine ethyl ester, L-alanine ethyl ester hydrochloride]
- IC50 [1, 6]: 420 µM
- AUC of fluorescence response-time curve [2, 9]: 21.1 ± 0.6 10^5 RFU ∙ s
- AUC, % of 10 mM L-alanine [2, 9]: 95.4 ± 2.5%
- response in the FMP assay (stimulation of SNAT2 activity) [2, 8]: substrates of SNAT2

Structure (SMILES): COC(=O)[C@H](C)N [L-Alanine methyl ester, L-alanine methyl ester hydrochloride]
- IC50 [1, 6]: 330 µM
- AUC of fluorescence response-time curve [2, 9]: 23.5 ± 0.8 10^5 RFU ∙ s
- AUC, % of 10 mM L-alanine [2, 9]: 106.6 ± 3.8%
- response in the FMP assay (stimulation of SNAT2 activity) [2, 8]: substrates of SNAT2

Structure (SMILES): C[C@H](N)C(=O)OC(C)(C)C [L-Alanine tert-butyl ester, L-alanine tert-butyl ester hydrochloride]
- IC50 [1, 6]: 4100 µM

Structure (SMILES): C[C@H](N)C(=O)O [L-Alanine, L-alanine]
- IC50 [1, 6]: 170 µM
- inhibition of 3H-glycine uptake at different pH levels ([1]; pH 6.8, 7.4 and 8.0, 0.4 mM L-alanine benzyl ester or 0.2 mM L-alanine, two-way ANOVA): no significant differences in inhibition at the different pH levels
- AUC of fluorescence response-time curve [2, 9]: 22.1 ± 0.9 10^5 RFU ∙ s
- AUC, % of 10 mM L-alanine [2, 9]: 100 ± 3.9%
- EC50 [2, 8]: 245 µM
- EC50 [4]: 138 µM

Structure (SMILES): N=C(N)NCCC[C@H](N)C(=O)O [L-Arginine, L-arginine hydrochloride]
- AUC of fluorescence response-time curve [2, 10]: -0.97 ± 0.3 10^5 RFU ∙ s
- AUC, % of 10 mM L-alanine [2, 10]: -4.4 ± 1.2%
- influence on fluorescence intensity in the FMP assay [2]: little influence on the fluorescence intensity

Structure (SMILES): O=C(O)[C@@H]1CCN1 [L-Azetidine-2-carboxylic acid, L-azetidine-2-carboxylic acid]
- IC50 [1]: 660 µM

Structure (SMILES): N[C@@H](CCO)C(=O)O [L-Homoserine, L-homoserine]
- IC50 [1, 6]: 250 µM
- AUC of fluorescence response-time curve [2, 9]: 25.9 ± 1.4 10^5 RFU ∙ s
- AUC, % of 10 mM L-alanine [2, 9]: 117.5 ± 6.2%
- response in the FMP assay (stimulation of SNAT2 activity) [2, 8]: substrates of SNAT2

Structure (SMILES): CCCC[C@H](N)C(=O)O [L-Norleucine, L-norleucine]
- AUC of fluorescence response-time curve [2, 9]: 24.4 ± 1.3 10^5 RFU ∙ s
- AUC, % of 10 mM L-alanine [2, 9]: 110.4 ± 6.1%
- response in the FMP assay (stimulation of SNAT2 activity) [2, 8]: substrates of SNAT2

Structure (SMILES): O=C(O)[C@@H]1CCCCN1 [L-Pipecolinic acid, L-pipecolinic acid]
- IC50 [1, 6]: 2900 µM
- AUC of fluorescence response-time curve [2, 9]: 18.1 ± 0.2 10^5 RFU ∙ s
- AUC, % of 10 mM L-alanine [2, 9]: 81.9 ± 0.8%
- response in the FMP assay (stimulation of SNAT2 activity) [2, 8]: substrates of SNAT2

Structure (SMILES): O=C(O)[C@@H]1CCCN1 [L-Proline, L-proline]
- IC50 [1, 6]: 640 µM

Structure (SMILES): N[C@@H](CO)C(=O)O [L-Serine, L-serine]
- IC50 [1, 6]: 460 µM
- AUC of fluorescence response-time curve [2, 9]: 24 ± 0.9 10^5 RFU ∙ s
- AUC, % of 10 mM L-alanine [2, 9]: 108.6 ± 4.2%
- fold change of intracellular accumulation in absence vs presence of 10 mM L-glutamine ([5]; 0.45 mM compound): 4.1 fold

Structure (SMILES): C[C@H](N)CO [L-alaninol]
- inhibition of SNAT2-mediated 3H-glycine uptake / affinity for SNAT2 [1, 8]: potency is lost

Structure (SMILES): N[C@@H](CCC(=O)O)C(=O)O [L-glutamate, L-glutamic acid]
- inhibition of SNAT2-mediated 3H-glycine uptake / affinity for SNAT2 [1, 8]: limited affinity

Structure (SMILES): NCCCC[C@H](N)C(=O)O [L-lysine, L-lysine monohydrochloride]
- inhibition of SNAT2-mediated 3H-glycine uptake / affinity for SNAT2 [1, 8]: limited affinity

Structure (SMILES): N[C@@H](Cc1ccccc1)C(=O)O [L-phenylalanine]
- inhibition of SNAT2-mediated 3H-glycine uptake / affinity for SNAT2 [1, 8]: relatively poor at inhibiting SNAT2

Structure (SMILES): CN(C)CC(=O)O [N,N-Dimethylglycine, N,N-dimethylglycine hydrochloride]
- IC50 [1, 6]: 23000 µM
- IC50 ([1]; hyperosmotically treated PC-3 cells, -log transformed IC50, read-out: pIC50 ± SEM (converted)): 25100 µM

Structure (SMILES): CNCC(=O)O [Sarcosine, sarcosine]
- IC50 [1, 6]: 710 µM

Structure (SMILES): NCCS(=O)(=O)O [Taurine, taurine]
- AUC of fluorescence response-time curve [2, 10]: -1.0 ± 0.2 10^5 RFU ∙ s
- AUC, % of 10 mM L-alanine [2, 10]: -4.7 ± 0.7%
- influence on fluorescence intensity in the FMP assay [2]: did not lead to an increase in fluorescence; also recorded: little influence on the fluorescence intensity

Structure (SMILES): Cl.NCC(N)=O [glycinamide, glycinamide hydrochloride]
- inhibition of SNAT2-mediated 3H-glycine uptake / affinity for SNAT2 [1, 8]: potency is lost

Structure (SMILES): N[C@H](C(=O)O)c1ccc(O)cc1 [oxfenicine, Oxfenicine]
- inhibition of SNAT2-mediated 3H-glycine uptake / affinity for SNAT2 [1, 8]: relatively poor at inhibiting SNAT2

Structure (SMILES): O=C(O)c1ccccn1 [picolinic acid]
- Hill slope of concentration-response curve [1, 8]: -4.2
- IC50 [1, 6]: 5600 µM

Structure (SMILES): O=C(O)[C@@H]1C[C@@H](O)CN1 [trans-4-Hydroxy-L-proline, trans-4-hydroxy-L-proline]
- IC50 [1]: 3500 µM

Structure (SMILES): N[C@@H](CCC(=O)OCc1ccccc1)C(=O)O [γ-Benzyl L-glutamate, γ-benzyl L-glutamate]
- IC50 [1, 6]: 680 µM
- AUC of fluorescence response-time curve [2, 7]: 1.7 ± 0.4 10^5 RFU ∙ s
- AUC, % of 10 mM L-alanine [2, 7]: 7.8 ± 1.9%
- response in the FMP assay (stimulation of SNAT2 activity) [2, 8]: little or no stimulation of SNAT2 activity
- fold change of intracellular accumulation in absence vs presence of 10 mM L-glutamine ([5]; 0.7 mM compound): 5.4 fold
- level of intracellular accumulation ([5]; result in words): relatively low accumulation
